Data published in patent US20230295197A1, “STAT5 and STAT6 Degraders and Uses Thereof” (REGENTS OF THE UNIVERSITY OF MICHICAN, priority 2022, published 2023).
Read-outs that look alike come from different tables or passages of the source.

Tested on: STAT5
Experiment: Immunoblotting (Western blot) analysis of STAT5 degradation efficiency of degraders in treated cells
Type: cell-based
Summary of the method: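 ~1e6 cells/pt; cpd at indicated conc and duration; RIPA + protease/phosphatase inhibitors; BCA; 20-40 μg/lane Tris-glycine SDS-PAGE; PVDF; primary Ab 1:1000 o/n 4 °C; IRDye secondaries 1 h rt; infrared scan and densitometry; GAPDH loading ctrl.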

[1] = MOLM-16 cells, numeric bound, read-out: DC50 S5 MOLM-16
[2] = SKNO1 cells, read-out: DC50 S5 SKNO1

DC50 [1] [nM]	DC50 [2] [nM]	DC50 (KU-812 cells, read-out: DC50 S5 KU-812) [nM]	Structure (SMILES)
> 300	> 10000		CC(C)(C)[C@H](NC(=O)c1cc2cc(C(F)(F)P(=O)(O)O)ccc2s1)C(=O)N1CCC[C@H]1C(=O)N(CCC(=O)NCCCC#Cc1cccc2c1CN(C1CCC(=O)NC1=O)C2=O)c1ccc(F)cc1 (stereo partly drawn) [Compound 634, ((2-(((2S)-1-((2S)-2-((3-((5-(2-(2,6-dioxopiperidin-3-yl)-1-oxoisoindolin-4-yl)pent-4-yn-1-yl)amino)-3-oxopropyl)(4-fluorophenyl)carbamoyl)pyrrolidin-1-yl)-3,3-dimethyl-1-oxobutan-2-yl)carbamoyl)benzo[b]thiophen-5-yl)difluoromethyl)phosphonic acid]
> 300	1000 to 10000		CC(C)(C)[C@H](NC(=O)c1cc2cc(C(F)(F)P(=O)(O)O)ccc2s1)C(=O)N1CCC[C@H]1C(=O)N(CCC(=O)NCCCC#Cc1cccc2c1CN(C1CCC(=O)NC1=O)C2=O)c1cccc(-c2ccccc2)c1 (stereo partly drawn) [Compound 649, ((2-(((2S)-1-((2S)-2-([1,1′-biphenyl]-3-yl(3-((5-(2-(2,6-dioxopiperidin-3-yl)-1-oxoisoindolin-4-yl)pent-4-yn-1-yl)amino)-3-oxopropyl)carbamoyl)pyrrolidin-1-yl)-3,3-dimethyl-1-oxobutan-2-yl)carbamoyl)benzo[b]thiophen-5-yl)difluoromethyl)phosphonic acid]
> 300	> 10000		CC(C)(C)[C@H](NC(=O)c1cc2cc(C(F)(F)P(=O)(O)O)ccc2s1)C(=O)N1CCC[C@H]1C(=O)N(CCC(=O)NCCCC#Cc1cccc2c1CN(C1CCC(=O)NC1=O)C2=O)c1ccc(C#N)cc1 (stereo partly drawn) [Compound 642, ((2-(((2S)-1-((2S)-2-((4-cyanophenyl)(3-((5-(2-(2,6-dioxopiperidin-3-yl)-1-oxoisoindolin-4-yl)pent-4-yn-1-yl)amino)-3-oxopropyl)carbamoyl)pyrrolidin-1-yl)-3,3-dimethyl-1-oxobutan-2-yl)carbamoyl)benzo[b]thiophen-5-yl)difluoromethyl)phosphonic acid]
> 300	1000 to 10000		CC(C)(C)c1ccc(N(CCC(=O)NCCCC#Cc2cccc3c2CN(C2CCC(=O)NC2=O)C3=O)C(=O)[C@@H]2CCCN2C(=O)[C@@H](NC(=O)c2cc3cc(C(F)(F)P(=O)(O)O)ccc3s2)C(C)(C)C)cc1 (stereo partly drawn) [Compound 647, ((2-(((2S)-1-((2S)-2-((4-(tert-butyl)phenyl)(3-((5-(2-(2,6-dioxopiperidin-3-yl)-1-oxoisoindolin-4-yl)pent-4-yn-1-yl)amino)-3-oxopropyl)carbamoyl)pyrrolidin-1-yl)-3,3-dimethyl-1-oxobutan-2-yl)carbamoyl)benzo[b]thiophen-5-yl)difluoromethyl)phosphonic acid]
> 300			CCN1CC[C@H]2CC[C@@H](C(=O)N(CCC(=O)NCCCCCC#Cc3cccc4c3CN(C3CCC(=O)NC3=O)C4=O)c3ccc(Br)cc3)N2C(=O)[C@@H](NC(=O)c2cc3cc(C(F)(F)P(=O)(O)O)ccc3s2)C1 (stereo partly drawn) [Compound 629, ((2-(((5S,8S,10aR)-8-((4-bromophenyl)(3-((7-(2-(2,6-dioxopiperidin-3-yl)-1-oxoisoindolin-4-yl)hept-6-yn-1-yl)amino)-3-oxopropyl)carbamoyl)-3-ethyl-6-oxodecahydropyrrolo[1,2-a][1,5]diazocin-5-yl)carbamoyl)benzo[b]thiophen-5-yl)difluoromethyl)phosphonic acid]
> 300			CCN1CC[C@H]2CC[C@@H](C(=O)N(CCC(=O)NCCCCC#Cc3cccc4c3CN(C3CCC(=O)NC3=O)C4=O)c3ccc(Br)cc3)N2C(=O)[C@@H](NC(=O)c2cc3cc(C(F)(F)P(=O)(O)O)ccc3s2)C1 (stereo partly drawn) [Compound 628, ((2-(((5S,8S,10aR)-8-((4-bromophenyl)(3-((6-(2-(2,6-dioxopiperidin-3-yl)-1-oxoisoindolin-4-yl)hex-5-yn-1-yl)amino)-3-oxopropyl)carbamoyl)-3-ethyl-6-oxodecahydropyrrolo[1,2-a][1,5]diazocin-5-yl)carbamoyl)benzo[b]thiophen-5-yl)difluoromethyl)phosphonic acid]
> 300	> 10000		CC(C)(C)[C@H](NC(=O)c1cc2cc(C(F)(F)P(=O)(O)O)ccc2s1)C(=O)N1CCC[C@H]1C(=O)N(CCC(=O)NCCCC#Cc1cccc2c1CN(C1CCC(=O)NC1=O)C2=O)c1ccc(C2CCOCC2)cc1 (stereo partly drawn) [Compound 651, ((2-(((2S)-1-((2S)-2-((3-((5-(2-(2,6-dioxopiperidin-3-yl)-1-oxoisoindolin-4-yl)pent-4-yn-1-yl)amino)-3-oxopropyl)(4-(tetrahydro-2H-pyran-4-yl)phenyl)carbamoyl)pyrrolidin-1-yl)-3,3-dimethyl-1-oxobutan-2-yl)carbamoyl)benzo[b]thiophen-5-yl)difluoromethyl)phosphonic acid]
> 300			CC(C)(C)[C@H](NC(=O)c1cc2cc(C(F)(F)P(=O)(O)O)ccc2s1)C(=O)N1C[C@@H](OCc2ccccc2)C[C@H]1C(=O)N(CCC(=O)NCCC#Cc1cccc2c1CN(C1CCC(=O)NC1=O)C2=O)c1ccc(Br)cc1 (stereo partly drawn) [Compound 622, ((2-(((2S)-1-((2S,4S)-4-(benzyloxy)-2-((4-bromophenyl)(3-((4-(2-(2,6-dioxopiperidin-3-yl)-1-oxoisoindolin-4-yl)but-3-yn-1-yl)amino)-3-oxopropyl)carbamoyl)pyrrolidin-1-yl)-3,3-dimethyl-1-oxobutan-2-yl)carbamoyl)benzo[b]thiophen-5-yl)difluoromethyl)phosphonic acid]
> 300	> 10000	> 10000	CC(C)(C)[C@H](NC(=O)c1cc2cc(C(F)(F)P(=O)(O)O)ccc2s1)C(=O)N1CCC[C@H]1C(=O)N(CCC(=O)N1CCC(C#Cc2cccc3c2CN(C2CCC(=O)NC2=O)C3=O)CC1)c1ccc(Br)cc1 (stereo partly drawn) [Compound 613, ((2-(((2S)-1-((2S)-2-((4-bromophenyl)(3-(4-((2-(2,6-dioxopiperidin-3-yl)-1-oxoisoindolin-4-yl)ethynyl)piperidin-1-yl)-3-oxopropyl)carbamoyl)pyrrolidin-1-yl)-3,3-dimethyl-1-oxobutan-2-yl)carbamoyl)benzo[b]thiophen-5-yl)difluoromethyl)phosphonic acid]
> 300			CC(C)(C)[C@H](NC(=O)c1cc2cc(C(F)(F)P(=O)(O)O)ccc2s1)C(=O)N1C[C@H](OCc2ccccc2)C[C@H]1C(=O)N(CCC(=O)NCCCCC#Cc1cccc2c1CN(C1CCC(=O)NC1=O)C2=O)c1ccc(Br)cc1 (stereo partly drawn) [Compound 619, ((2-(((2S)-1-((2S,4R)-4-(benzyloxy)-2-((4-bromophenyl)(3-((6-(2-(2,6-dioxopiperidin-3-yl)-1-oxoisoindolin-4-yl)hex-5-yn-1-yl)amino)-3-oxopropyl)carbamoyl)pyrrolidin-1-yl)-3,3-dimethyl-1-oxobutan-2-yl)carbamoyl)benzo[b]thiophen-5-yl)difluoromethyl)phosphonic acid]
> 300			CC(C)(C)[C@H](NC(=O)c1cc2cc(C(F)(F)P(=O)(O)O)ccc2s1)C(=O)N1C[C@H](OCc2ccccc2)C[C@H]1C(=O)N(CCC(=O)NCC#Cc1cccc2c1CN(C1CCC(=O)NC1=O)C2=O)c1ccc(Br)cc1 (stereo partly drawn) [Compound 616, ((2-(((2S)-1-((2S,4R)-4-(benzyloxy)-2-((4-bromophenyl)(3-((3-(2-(2,6-dioxopiperidin-3-yl)-1-oxoisoindolin-4-yl)prop-2-yn-1-yl)amino)-3-oxopropyl)carbamoyl)pyrrolidin-1-yl)-3,3-dimethyl-1-oxobutan-2-yl)carbamoyl)benzo[b]thiophen-5-yl)difluoromethyl)phosphonic acid]
